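Exposure lasted 48 hours, with cells grown in 96-well plates and compounds tested at five concentrations. TGI denotes the concentration required for complete inhibition of growth.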
Columns and labels:
Assay in all cases: NCI tumour cell line growth inhibition, 48 h
[1] = system: RPMI-8226 leukemia
[2] = system: SN12C renal
[3] = system: M14 melanoma
[4] = system: IGROV1 ovarian
[5] = system: NCI/ADR-RES ovarian
[6] = system: UO-31 renal
[7] = system: SK-MEL-5 melanoma
[8] = system: ACHN renal
[9] = system: KM12 colon
[10] = system: MALME-3M melanoma
[11] = system: MDA-N
[12] = system: SK-MEL-28 melanoma
[13] = system: BT-549 breast
[14] = system: HOP-62 NSCLC
[15] = system: COLO 205 colon
[16] = system: A549 NSCLC
[17] = system: HCT-116 colon
[18] = system: T-47D breast
[19] = system: DU-145 prostate
[20] = system: TK-10 renal
[21] = system: SK-OV-3 ovarian
[22] = system: MDA-MB-435
[23] = system: SNB-75 CNS
[24] = system: U251 CNS
[25] = system: UACC-62 melanoma
[26] = system: SF-539 CNS
[27] = system: A498 renal
[28] = system: MCF7 breast
[29] = system: SNB-19 CNS
[30] = system: CCRF-CEM leukemia
[31] = system: NCI-H460 lung
[32] = system: OVCAR-8 ovarian
[33] = system: K-562 leukemia
[34] = system: LOX IMVI melanoma
[35] = system: HS 578T breast
[36] = system: HCT-15 colon
[37] = system: HCC-2998 colon
[38] = system: SR leukemia
[39] = system: PC-3 prostate
[40] = system: MOLT-4 leukemia
[41] = system: SW-620 colon
[42] = system: 786-0 renal
[43] = system: OVCAR-3 ovarian
[44] = system: MDA-MB-231 breast
[45] = system: OVCAR-5 ovarian
[46] = system: OVCAR-4 ovarian
[47] = system: NCI-H226 lung
[48] = system: SF-295 CNS
[49] = system: NCI-H522 lung
[50] = system: HOP-92 NSCLC
[51] = system: HL-60(TB) leukemia
[52] = system: HT29 colon
[53] = system: SF-268 CNS
[54] = system: NCI-H23 lung
[55] = system: EKVX NSCLC
[56] = system: UACC-257 melanoma
[57] = system: CAKI-1 renal
[58] = system: SK-MEL-2 melanoma
[59] = system: RXF 393 renal

## CCOC(=O)NC(Nc1ccc(C(=O)OCC)cc1)(C(F)(F)F)C(F)(F)F
[1]
  TGI: > 100 µM
[2]
  TGI: > 100 µM
[3]
  TGI: > 100 µM
[4]
  TGI: > 100 µM
[5]
  TGI: > 100 µM
[6]
  TGI: > 100 µM
[7]
  TGI: > 100 µM
[8]
  TGI: > 100 µM
[9]
  TGI: > 100 µM
[10]
  TGI: > 100 µM
[11]
  TGI: > 100 µM
[12]
  TGI: > 100 µM
[13]
  TGI: > 100 µM
[14]
  TGI: > 100 µM
[15]
  TGI: > 100 µM
[16]
  TGI: > 100 µM
[17]
  TGI: > 100 µM
[18]
  TGI: > 100 µM
[19]
  TGI: > 100 µM
[20]
  TGI: > 100 µM
[21]
  TGI: > 100 µM
[22]
  TGI: > 100 µM
[23]
  TGI: > 100 µM
[24]
  TGI: > 100 µM
[25]
  TGI: > 100 µM
[26]
  TGI: > 100 µM
[27]
  TGI: > 100 µM
[28]
  TGI: > 100 µM
[29]
  TGI: > 100 µM
[30]
  TGI: > 100 µM
[31]
  TGI: > 100 µM
[32]
  TGI: > 100 µM
[33]
  TGI: > 100 µM
[34]
  TGI: > 100 µM
[35]
  TGI: > 100 µM
[36]
  TGI: > 100 µM
[37]
  TGI: > 100 µM
[38]
  TGI: > 100 µM
[39]
  TGI: > 100 µM
[40]
  TGI: > 100 µM
[41]
  TGI: > 100 µM
[42]
  TGI: > 100 µM
[43]
  TGI: > 100 µM
[44]
  TGI: > 100 µM
[45]
  TGI: > 100 µM
[46]
  TGI: > 100 µM
[47]
  TGI: > 100 µM
[48]
  TGI: > 100 µM
[49]
  TGI: > 100 µM
[50]
  TGI: > 100 µM
[51]
  TGI: > 100 µM
[52]
  TGI: > 100 µM
[53]
  TGI: > 100 µM
[54]
  TGI: > 100 µM

## Nn1c(Cc2ccc([N+](=O)[O-])cc2)n[nH]c1=O
[1]
  TGI: > 100 µM
[2]
  TGI: > 100 µM
[55]
  TGI: > 100 µM
[3]
  TGI: > 100 µM
[4]
  TGI: > 100 µM
[5]
  TGI: > 100 µM
[6]
  TGI: > 100 µM
[7]
  TGI: > 100 µM
[8]
  TGI: > 100 µM
[9]
  TGI: > 100 µM
[10]
  TGI: > 100 µM
[11]
  TGI: > 100 µM
[12]
  TGI: > 100 µM
[13]
  TGI: > 100 µM
[14]
  TGI: > 100 µM
[56]
  TGI: > 100 µM
[15]
  TGI: > 100 µM
[16]
  TGI: > 100 µM
[17]
  TGI: > 100 µM
[18]
  TGI: > 100 µM
[19]
  TGI: > 100 µM
[21]
  TGI: > 100 µM
[22]
  TGI: > 100 µM
[23]
  TGI: > 100 µM
[24]
  TGI: > 100 µM
[25]
  TGI: > 100 µM
[26]
  TGI: > 100 µM
[57]
  TGI: > 100 µM
[28]
  TGI: > 100 µM
[29]
  TGI: > 100 µM
[30]
  TGI: > 100 µM
[31]
  TGI: > 100 µM
[32]
  TGI: > 100 µM
[33]
  TGI: > 100 µM
[34]
  TGI: > 100 µM
[35]
  TGI: > 100 µM
[36]
  TGI: > 100 µM
[37]
  TGI: > 100 µM
[38]
  TGI: > 100 µM
[39]
  TGI: > 100 µM
[40]
  TGI: > 100 µM
[41]
  TGI: > 100 µM
[42]
  TGI: > 100 µM
[43]
  TGI: > 100 µM
[44]
  TGI: > 100 µM
[45]
  TGI: > 100 µM
[46]
  TGI: > 100 µM
[47]
  TGI: > 100 µM
[48]
  TGI: > 100 µM
[49]
  TGI: > 100 µM
[50]
  TGI: > 100 µM
[51]
  TGI: > 100 µM
[52]
  TGI: > 100 µM
[53]
  TGI: > 100 µM
[58]
  TGI: > 100 µM
[54]
  TGI: > 100 µM

## Oc1ccc2c(c1)-c1c(c3ccccc3n1CCN1CCOCC1)CC2
[1]
  TGI: > 100 µM
[2]
  TGI: > 100 µM
[55]
  TGI: > 100 µM
[3]
  TGI: 88 µM
[4]
  TGI: > 100 µM
[5]
  TGI: 95.3 µM
[6]
  TGI: > 100 µM
[7]
  TGI: > 100 µM
[8]
  TGI: 53.3 µM
[9]
  TGI: 51.3 µM
[10]
  TGI: > 100 µM
[11]
  TGI: > 100 µM
[13]
  TGI: > 100 µM
[14]
  TGI: > 100 µM
[56]
  TGI: 84.6 µM
[15]
  TGI: > 100 µM
[17]
  TGI: > 100 µM
[18]
  TGI: > 100 µM
[19]
  TGI: > 100 µM
[20]
  TGI: 94.4 µM
[21]
  TGI: 85.2 µM
[22]
  TGI: > 100 µM
[23]
  TGI: 68.5 µM
[24]
  TGI: > 100 µM
[25]
  TGI: 81 µM
[26]
  TGI: > 100 µM
[27]
  TGI: > 100 µM
[59]
  TGI: > 100 µM
[57]
  TGI: > 100 µM
[28]
  TGI: > 100 µM
[29]
  TGI: > 100 µM
[30]
  TGI: > 100 µM
[31]
  TGI: > 100 µM
[32]
  TGI: > 100 µM
[33]
  TGI: > 100 µM
[34]
  TGI: > 100 µM
[35]
  TGI: > 100 µM
[36]
  TGI: > 100 µM
[38]
  TGI: > 100 µM
[39]
  TGI: > 100 µM
[40]
  TGI: > 100 µM
[42]
  TGI: > 100 µM
[43]
  TGI: > 100 µM
[44]
  TGI: > 100 µM
[45]
  TGI: 61.3 µM
[47]
  TGI: 81.2 µM
[48]
  TGI: > 100 µM
[51]
  TGI: > 100 µM
[52]
  TGI: > 100 µM
[53]
  TGI: > 100 µM
[58]
  TGI: 69.4 µM
[54]
  TGI: 69.1 µM

## N#Cc1c(N)nc(Sc2ccccc2N)c(C#N)c1-c1ccc(Cl)cc1
[1]
  TGI: 28.8 µM
[2]
  TGI: 40.4 µM
[55]
  TGI: > 56.1 µM
[3]
  TGI: 38.5 µM
[4]
  TGI: 33.6 µM
[5]
  TGI: 35.5 µM
[6]
  TGI: 9.64 µM
[7]
  TGI: > 55 µM
[8]
  TGI: 39.5 µM
[9]
  TGI: 35.9 µM
[10]
  TGI: 27.7 µM
[11]
  TGI: 40.2 µM
[12]
  TGI: > 100 µM
[13]
  TGI: 33.2 µM
[14]
  TGI: 17.2 µM
[56]
  TGI: 62.9 µM
[15]
  TGI: > 100 µM
[16]
  TGI: > 75.2 µM
[17]
  TGI: > 72.6 µM
[18]
  TGI: 4.24 µM
[19]
  TGI: > 58.2 µM
[20]
  TGI: > 48.5 µM
[21]
  TGI: 40.6 µM
[22]
  TGI: 37.5 µM
[24]
  TGI: 24.5 µM
[25]
  TGI: 13 µM
[26]
  TGI: 26.7 µM
[27]
  TGI: 16.9 µM
[59]
  TGI: 49.9 µM
[57]
  TGI: 45 µM
[28]
  TGI: 29.6 µM
[29]
  TGI: > 56.6 µM
[30]
  TGI: > 100 µM
[31]
  TGI: 58.6 µM
[32]
  TGI: 41 µM
[33]
  TGI: > 42 µM
[34]
  TGI: 15.3 µM
[35]
  TGI: 32 µM
[36]
  TGI: 54.7 µM
[37]
  TGI: 36 µM
[38]
  TGI: > 40.5 µM
[39]
  TGI: 20.7 µM
[40]
  TGI: > 24.6 µM
[41]
  TGI: > 100 µM
[42]
  TGI: 42.7 µM
[43]
  TGI: 31.9 µM
[44]
  TGI: 35.7 µM
[45]
  TGI: > 87.3 µM
[46]
  TGI: > 100 µM
[47]
  TGI: > 100 µM
[48]
  TGI: 25.9 µM
[49]
  TGI: 35.8 µM
[50]
  TGI: 53.1 µM
[51]
  TGI: > 100 µM
[52]
  TGI: > 100 µM
[53]
  TGI: 23.8 µM
[58]
  TGI: 18.2 µM
[54]
  TGI: > 63 µM
